# Results: patent US20050282208A1, “Cellular phenotype” (Cytokinetics, Inc., priority 2004, published 2005)
# Assays:
# SKOV3 cells [1] = test: Image analysis of treated SKOV3 cells: mitotic index and interphase phenotype distance from control; type: cell-based
# A549 cells = test: Cell line specificity: mitotic index, number of objects and rice phenotype in A549 cells; type: cell-based, human; conditions: wide range of concentrations, FIG. 7A
# From the text: (§1) But it is apparently immune to all anti-mitotic agents.
# (§2) As shown, the discrepancy exists over a wide range of concentrations. The two effects depicted in FIG. 7A are number of objects (a measure of the compound's cell killing strength) and mitotic index (fraction of the cells in a population that are in the mitotic phase).
# DU145 cells = test: Cell line specificity: mitotic index, number of objects and rice phenotype in DU145 cells; type: cell-based
# Procedure: as §1, §2
# FIG. 7B compares phenotypes of DU145 cells that were treated with 4-(3-Bromo-4-hydroxy-5-methoxy-phenyl)-6-methyl-2-oxo-1,2,3,4-tetrahydro-pyrimidine-5-carboxylic acid 1,2,2-trimethyl-propyl ester (top panel) to phenotypes of DU145 cells that were treated with a different compound (bottom panel). […] Note that the other compound produces a phenotype bearing some resemblance to the rice phenotype in SKOV3 cells. Specifically, it produces mitotic spindles that are somewhat elongated. […] This was not observed with the other compound.
# SKOV3 cells [2] = test: Image analysis of treated SKOV3 cells: mitotic index and interphase phenotype distance from control; type: cell-based; conditions: for Impact on mitotic index / Impact on interphase features (combined distance from normal interphase phenotype): FIG. 5A, multiple concentrations; for Impact on mitotic index: 40 uM maximum; for Impact on interphase features (combined distance from normal interphase phenotype): 40 uM maximum (Taxol 0.8 uM maximum)
# From the text: In one specific example, a particular group of cellular features for characterizing the interphase phenotype of a cell could include, for all cells that are not mitotic: • the average size of cell nuclei; • the average elliptical axis ratio for nuclei; • the average kurtosis intensity of cells; • the average pixel intensity for Golgi apparatus in cells; • the average cell area; • the elliptical axis ratio for cells; • the form factor (area divided by perimeter) for cells; • the kurtosis of the intensity of tubulin; • the second moment of a cell; • the average total intensity of tubulin for each cell; • the proportion of branched (i.e. having projections) cells.
# In one embodiment, after each cellular feature has been characterized, and similarly for the control group cellular features, a distance in multivariate space may be calculated. This can be the distance from a normal interphase phenotype as presented in the horizontal axis of FIG. 5A (described below). For the purposes of simplicity of discussion, if it is assumed that there are only three cellular features (a, b, c) comprising the interphase phenotype signature, and where the subscript ‘t’ refers to a feature of a treated cell and the subscript ‘c’ refers to a feature of a control cell, then the distance (L1) in multivariate space between the interphase signature of the treated cells and interphase signature of the control cells can be calculated as L1=|at−ac|+|bt−bc|+|ct−cc|, which provides the interphase metric.
# FIG. 5A presents data showing that certain compounds producing the rice phenotype have very little effect on phenotypic features of interphase cells. In FIG. 5A, the vertical axis presents mitotic index, which is a measure of a compound's ability to cause mitotic arrest (thereby its ability to have a profound effect on the phenotype of mitotic cells), and the horizontal axis presents a “combined distance” from a normal interphase phenotype. The combined distance takes into account various features that characterize interphase phenotype, including those described above (i.e., the average size of cell nuclei, the average elliptical axis ratio for nuclei, the average kurtosis intensity of cells, etc.) Greater values on the horizontal axis indicate greater deviations from a control phenotype for interphase cells.
# FIG. 5B is a profile graph showing that the interphase cells treated with rice compounds track interphase control cells for various interphase phenotypic features. These features include, as shown on the horizontal axis, the relative number of objects (putative cells), the average area occupied by DNA in the objects (presumably nuclei), the average axes ratio of the DNA regions in the objects, the average kurtosis of the Golgi regions, the mean intensity of the Golgi regions, average area encompassed by tubulin in the objects, the average axes ratio of tubulin in the objects, the average kurtosis of the tubulin regions, the average form factor of the tubulin regions, the average moment of the tubulin regions, the average total intensity of tubulin in each object, and the branching properties of the tubulin in the objects. Note that the cells used to generate this graph were treated with markers for Golgi (LC for labeled LC Lectin), DNA (HO for Hoechst stain), and tubulin (DM for labeled DM1-α). As shown, the rice features closely track those of the DMSO treated cells and diverge strongly from the interphase cells of Taxol treated cells.
# The data of FIG. 5B were obtained by treating SKOV3 cells with many different compounds and then capturing the interphase characteristics shown in the horizontal axis using image analysis techniques. The concentration of each compound was chosen by determining what concentration of a compound produced a mitotic index between 14 and 17% after cells were treated at multiple concentrations and then imaged to capture Golgi, tubulin, and DNA data for the interphase features shown in FIG. 5B. […]
# SKOV3 cells [3] = test: Mitotic spindle length in tubulin marker images of SKOV3 cells; type: cell-based
# From the text: In accordance with this invention, the length of a bipolar mitotic spindle may be measured as the separation distance between the spindle poles. To make such measurement, mitotic spindles are observed by a suitable technique such as one that employs a marker for a specific component of the spindle. For example, the technique may involve treating cells with a marker for tubulin and then imaging them under conditions that illuminate such marker. This facilitates automated identification of the mitotic spindle and measurement of its length using image analysis algorithms. […]
# The data in this table was obtained for SKOV3 cells (ovarian cancer cell line) treated with DMSO (control) and a compound that produces the rice phenotype. […] In the table, “n” is the number of cells that were analyzed to generate a mean length in micrometers as indicated and associated standard deviation. Spindle lengths were measured manually in this example.
# Manual measurements were taken from one image each of DMSO, rice compound 4-(3-Bromo-4-hydroxy-5-methoxy-phenyl)-6-methyl-2-oxo-1,2,3,4-tetrahydro-pyrimidine-5-carboxylic acid 1,2,2-trimethyl-propyl ester at 40 uM, and a mitotic kinesin inhibitor at 40 uM using MetaMorph Imaging Software. Lines were drawn between what was manually determined to be the ends of the mitotic spindle. […]
# 60 cell lines = conditions: NCI panel data; cited from earlier work
# [4] = SK0V3 cell line, wide range of concentrations, FIG. 7A
# [5] = wide range of concentrations, FIG. 7A
SMILES,Effect on cell number (number of objects) (SKOV3 cells [1]; [4]),Effect on mitotic index (SKOV3 cells [1]; [4]),Induction of the rice phenotype (SKOV3 cells [1]; SKOV3 cells),Effect on cell number (number of objects) (A549 cells),Effect on mitotic index (A549 cells),"Induction of the rice phenotype (DU145 cells; tubulin staining, FIG. 7B)",Effect on cell number (number of objects) (DU145 cells; [5]),Effect on mitotic index (DU145 cells; [5]),Impact on mitotic index (SKOV3 cells [2]),Impact on interphase features (combined distance from normal interphase phenotype) (SKOV3 cells [2]),"Organization of nuclear DNA in interphase cells compared to control (SKOV3 cells [1]; 40 uM for 24 hours, GFP-Histone, FIG. 6A)","Mitotic spindle length compared to control cells (SKOV3 cells [3]; 40 uM for 24 hours, control 0.4% DMSO, FIG. 2A)",Production of elongated metaphase spindles (SKOV3 cells [3]),Potency differences between cell types (60 cell lines),"Interphase phenotypic features profile compared to control (SKOV3 cells [2]; FIG. 5B, SKOV3 cells, concentrations inducing approximately 15% mitotic arrest)"
"COc1cc(C2NC(=O)NC(C)=C2C(=O)OC(C)C(C)(C)C)cc(Br)c1O (centres unmarked) [4-(3-Bromo-4-hydroxy-5-methoxy-phenyl)-6-methyl-2-oxo-1,2,3,4-tetrahydro-pyrimidine-5-carboxylic acid 1,2,2-trimethyl-propyl ester]",significant affects,significant affects,clearly manifest,limited effect,limited effect,produces a rice phenotype,significant affects,significant affects,significant impact on mitotic index,minimal impact on interphase features,,,,,
"COc1cc(C2NC(=O)N(C)C(C)=C2C(=O)OC2CCCC2)cc(Br)c1O (centres unmarked) [4-(3-Bromo-4-hydroxy-5-methoxy-phenyl)-1,6-dimethyl-2-oxo-1,2,3,4-tetrahydro-pyrimidine-5-carboxylic acid cyclopentyl ester]",,,,,,,,,significant impact on mitotic index,minimal impact on interphase features,similarly organized in rice interphase cells as it is in normal interphase cells,significantly longer than spindles in normal cells,,,
"CC(=O)O[C@H]1C(=O)[C@@]2(C)[C@H]([C@H](OC(=O)c3ccccc3)[C@]3(O)C[C@H](OC(=O)[C@H](O)[C@@H](NC(=O)c4ccccc4)c4ccccc4)C(C)=C1C3(C)C)[C@]1(OC(C)=O)CO[C@@H]1C[C@@H]2O [Taxol, reference compound]",,,,robust response,robust response,,,,,widely separated from the control interphase phenotype,,,do not produce elongated metaphase spindles,over 3 orders of magnitude,vary to a greater degree
